Article PMC9841523 (Journal of Medicinal Chemistry, 2022)
“And” between values parts separate entries of the source, which are not always exact repeats. Equal values may be shown once. Read-outs that look alike come from different tables or passages of the source.

Legend:
MAP3K2, MAP3K3 = assay: KiNativ kinase panel; assay type: cell-based, human; settings: 1 μM; MCF-7 Cells; Lys2; DIKGANILR
MER, TYRO3 = assay: KiNativ kinase panel; assay type: cell-based, human; settings: 1 μM; MCF-7 Cells; Activation Loop; KIYSGDYYR
EphB2 = molecular target: T1, EphB2 (Homo sapiens, UniProt P29323); assay: KiNativ kinase panel; assay type: cell-based; settings: 1 μM; MCF-7 Cells; Activation Loop; FLEDDTSDPTYTSALGGKIPIR
T1 construct: MCF7 cells were exposed to; endogenous in cells; host or cells: MCF7
T1 sequence (P29323 19-1055): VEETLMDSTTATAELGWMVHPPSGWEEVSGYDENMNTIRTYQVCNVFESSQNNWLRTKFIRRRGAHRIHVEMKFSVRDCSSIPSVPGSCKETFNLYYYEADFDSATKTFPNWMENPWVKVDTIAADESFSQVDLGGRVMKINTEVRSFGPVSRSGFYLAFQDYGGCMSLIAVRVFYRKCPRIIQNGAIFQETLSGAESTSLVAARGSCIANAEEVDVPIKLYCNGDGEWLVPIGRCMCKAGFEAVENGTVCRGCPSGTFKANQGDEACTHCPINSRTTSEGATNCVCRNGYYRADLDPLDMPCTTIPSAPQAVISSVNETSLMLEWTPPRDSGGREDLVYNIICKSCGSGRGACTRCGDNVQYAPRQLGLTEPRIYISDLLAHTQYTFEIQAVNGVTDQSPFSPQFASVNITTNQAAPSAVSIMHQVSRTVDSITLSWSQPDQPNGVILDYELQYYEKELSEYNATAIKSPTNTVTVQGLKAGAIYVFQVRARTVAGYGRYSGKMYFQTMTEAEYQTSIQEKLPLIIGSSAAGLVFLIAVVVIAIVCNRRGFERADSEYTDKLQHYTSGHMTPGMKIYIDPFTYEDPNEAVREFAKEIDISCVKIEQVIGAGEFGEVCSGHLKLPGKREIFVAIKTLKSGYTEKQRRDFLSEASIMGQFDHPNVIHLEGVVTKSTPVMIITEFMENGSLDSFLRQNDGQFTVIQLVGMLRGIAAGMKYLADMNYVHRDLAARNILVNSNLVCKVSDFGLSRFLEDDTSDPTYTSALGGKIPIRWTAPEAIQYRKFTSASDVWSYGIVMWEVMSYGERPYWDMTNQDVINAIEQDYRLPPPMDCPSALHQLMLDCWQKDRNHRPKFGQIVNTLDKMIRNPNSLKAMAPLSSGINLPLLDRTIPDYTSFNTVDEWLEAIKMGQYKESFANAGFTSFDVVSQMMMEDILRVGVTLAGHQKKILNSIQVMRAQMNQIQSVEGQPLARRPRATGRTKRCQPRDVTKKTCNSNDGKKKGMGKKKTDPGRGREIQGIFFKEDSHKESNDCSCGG

[1] = test system: MSK1 domain1, MSK2 domain1; assay: KiNativ kinase panel; assay type: cell-based, human; settings: 1 μM, MCF-7 Cells, ATP Loop
SMG1 = molecular target: T2, SMG1 (Homo sapiens, UniProt Q96Q15); assay: KiNativ kinase panel; assay type: cell-based; settings: 1 μM, MCF-7 Cells, ATP
T2 construct: endogenous in cells; host or cells: MCF7
T2 sequence (Q96Q15 whole entry): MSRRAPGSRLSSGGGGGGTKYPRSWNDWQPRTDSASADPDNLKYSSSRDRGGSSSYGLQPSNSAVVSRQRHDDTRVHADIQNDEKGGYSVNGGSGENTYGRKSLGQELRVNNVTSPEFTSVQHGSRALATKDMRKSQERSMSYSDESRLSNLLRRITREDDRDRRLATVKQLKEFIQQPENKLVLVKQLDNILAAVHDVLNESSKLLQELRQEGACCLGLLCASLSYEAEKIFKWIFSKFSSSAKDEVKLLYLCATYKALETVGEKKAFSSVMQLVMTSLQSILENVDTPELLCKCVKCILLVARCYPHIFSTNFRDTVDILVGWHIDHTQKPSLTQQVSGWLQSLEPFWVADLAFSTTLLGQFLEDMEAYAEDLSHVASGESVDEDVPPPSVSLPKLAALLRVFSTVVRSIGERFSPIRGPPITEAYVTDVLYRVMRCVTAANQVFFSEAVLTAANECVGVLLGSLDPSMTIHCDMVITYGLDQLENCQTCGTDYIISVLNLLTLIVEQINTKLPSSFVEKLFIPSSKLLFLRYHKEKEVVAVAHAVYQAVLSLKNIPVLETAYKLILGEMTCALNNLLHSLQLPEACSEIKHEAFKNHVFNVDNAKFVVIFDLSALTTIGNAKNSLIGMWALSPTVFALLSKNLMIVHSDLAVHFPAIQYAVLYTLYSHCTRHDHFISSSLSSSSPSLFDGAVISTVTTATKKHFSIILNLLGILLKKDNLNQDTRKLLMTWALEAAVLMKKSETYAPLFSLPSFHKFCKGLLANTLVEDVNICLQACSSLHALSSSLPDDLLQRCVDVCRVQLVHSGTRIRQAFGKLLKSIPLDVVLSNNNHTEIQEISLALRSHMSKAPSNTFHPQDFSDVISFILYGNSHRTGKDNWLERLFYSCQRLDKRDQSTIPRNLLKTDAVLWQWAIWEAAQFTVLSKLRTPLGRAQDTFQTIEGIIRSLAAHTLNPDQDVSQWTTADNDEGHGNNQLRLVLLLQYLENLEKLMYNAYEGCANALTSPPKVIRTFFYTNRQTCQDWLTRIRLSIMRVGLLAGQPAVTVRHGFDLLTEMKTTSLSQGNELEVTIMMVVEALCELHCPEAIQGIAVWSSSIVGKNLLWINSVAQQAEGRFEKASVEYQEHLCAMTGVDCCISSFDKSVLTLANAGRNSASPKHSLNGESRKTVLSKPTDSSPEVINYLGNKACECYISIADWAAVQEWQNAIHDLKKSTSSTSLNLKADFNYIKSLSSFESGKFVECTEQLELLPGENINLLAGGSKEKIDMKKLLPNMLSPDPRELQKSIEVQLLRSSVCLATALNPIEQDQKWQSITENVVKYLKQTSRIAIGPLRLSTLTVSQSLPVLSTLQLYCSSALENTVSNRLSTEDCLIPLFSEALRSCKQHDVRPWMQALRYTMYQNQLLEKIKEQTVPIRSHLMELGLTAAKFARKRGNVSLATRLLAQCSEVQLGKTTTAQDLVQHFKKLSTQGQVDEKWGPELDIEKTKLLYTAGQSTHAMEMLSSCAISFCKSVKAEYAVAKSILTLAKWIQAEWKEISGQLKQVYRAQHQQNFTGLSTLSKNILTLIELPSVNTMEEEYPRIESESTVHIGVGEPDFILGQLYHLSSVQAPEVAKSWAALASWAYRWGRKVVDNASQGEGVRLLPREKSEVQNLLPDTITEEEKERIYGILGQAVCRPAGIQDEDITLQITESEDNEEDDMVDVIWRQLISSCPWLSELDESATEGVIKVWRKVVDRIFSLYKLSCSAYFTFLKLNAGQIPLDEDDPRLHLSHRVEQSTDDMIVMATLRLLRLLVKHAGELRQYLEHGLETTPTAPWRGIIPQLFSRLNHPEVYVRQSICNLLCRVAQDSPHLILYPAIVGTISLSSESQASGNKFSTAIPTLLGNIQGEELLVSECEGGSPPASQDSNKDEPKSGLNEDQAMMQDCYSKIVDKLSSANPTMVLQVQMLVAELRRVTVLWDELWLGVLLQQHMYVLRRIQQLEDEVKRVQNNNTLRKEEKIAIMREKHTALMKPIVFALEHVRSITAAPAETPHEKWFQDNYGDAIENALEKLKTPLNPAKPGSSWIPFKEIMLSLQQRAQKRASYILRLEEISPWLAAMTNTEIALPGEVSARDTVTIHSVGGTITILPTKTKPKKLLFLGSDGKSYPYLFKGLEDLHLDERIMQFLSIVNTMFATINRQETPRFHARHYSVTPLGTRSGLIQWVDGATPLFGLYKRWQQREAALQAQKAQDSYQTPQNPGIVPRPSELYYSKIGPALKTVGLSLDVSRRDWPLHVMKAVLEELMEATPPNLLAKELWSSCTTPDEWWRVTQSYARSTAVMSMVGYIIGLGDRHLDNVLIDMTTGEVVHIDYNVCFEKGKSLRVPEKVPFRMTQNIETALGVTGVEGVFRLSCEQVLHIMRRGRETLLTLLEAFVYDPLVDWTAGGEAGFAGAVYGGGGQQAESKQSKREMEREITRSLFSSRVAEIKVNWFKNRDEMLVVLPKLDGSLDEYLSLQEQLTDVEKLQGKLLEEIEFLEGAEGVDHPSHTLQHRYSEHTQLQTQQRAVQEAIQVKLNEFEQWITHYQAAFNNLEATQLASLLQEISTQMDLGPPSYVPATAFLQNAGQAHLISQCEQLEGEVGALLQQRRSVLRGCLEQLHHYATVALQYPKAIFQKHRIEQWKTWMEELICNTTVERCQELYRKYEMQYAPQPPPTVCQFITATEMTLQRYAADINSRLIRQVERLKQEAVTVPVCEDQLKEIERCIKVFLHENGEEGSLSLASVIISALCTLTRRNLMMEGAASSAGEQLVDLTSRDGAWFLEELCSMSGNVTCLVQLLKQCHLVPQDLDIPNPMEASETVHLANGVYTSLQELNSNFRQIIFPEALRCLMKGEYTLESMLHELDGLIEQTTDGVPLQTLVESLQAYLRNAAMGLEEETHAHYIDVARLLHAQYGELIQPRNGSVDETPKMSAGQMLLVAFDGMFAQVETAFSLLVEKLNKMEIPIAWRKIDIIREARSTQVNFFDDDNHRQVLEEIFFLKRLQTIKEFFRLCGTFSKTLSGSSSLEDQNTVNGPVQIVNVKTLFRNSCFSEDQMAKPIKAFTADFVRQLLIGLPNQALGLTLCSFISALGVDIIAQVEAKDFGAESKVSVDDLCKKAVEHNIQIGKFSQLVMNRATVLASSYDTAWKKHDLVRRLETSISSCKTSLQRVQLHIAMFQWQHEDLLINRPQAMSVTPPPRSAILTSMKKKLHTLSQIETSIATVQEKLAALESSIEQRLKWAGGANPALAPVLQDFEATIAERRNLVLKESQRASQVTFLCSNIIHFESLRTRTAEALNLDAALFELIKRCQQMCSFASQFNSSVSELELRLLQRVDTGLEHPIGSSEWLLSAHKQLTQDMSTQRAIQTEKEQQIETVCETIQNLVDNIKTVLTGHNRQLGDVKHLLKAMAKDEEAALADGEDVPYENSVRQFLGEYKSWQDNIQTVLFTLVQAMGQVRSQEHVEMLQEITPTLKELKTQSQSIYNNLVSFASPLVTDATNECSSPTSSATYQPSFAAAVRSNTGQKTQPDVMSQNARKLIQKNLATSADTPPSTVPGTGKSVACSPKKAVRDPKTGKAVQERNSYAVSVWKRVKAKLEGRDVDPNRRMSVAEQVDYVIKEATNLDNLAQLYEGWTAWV

NEK6, NEK7 = assay: KiNativ kinase panel; assay type: cell-based, human; settings: 1 μM, MCF-7 Cells, Lys2
MAST1, MAST2 = assay: KiNativ kinase panel; assay type: cell-based, human; settings: 1 μM, MCF-7 Cells, Lys2
AKT2, AKT3 = assay: KiNativ kinase panel; assay type: cell-based, human; settings: 1 μM, MCF-7 Cells, ATP Loop
AMPKa1, AMPKa2 = assay: KiNativ kinase panel; assay type: cell-based, human; settings: 1 μM, MCF-7 Cells
LOK = molecular target: T3, LOK (Homo sapiens, UniProt O94804); assay: KiNativ kinase panel; assay type: cell-based; settings: 1 μM; MCF-7 Cells; Lys2; DLKAGNVLMTLEGDIR
T3 construct: endogenous in cells; host or cells: MCF7

NuaK2 = molecular target: T4, NuaK2 (Homo sapiens, UniProt Q9H093); assay: KiNativ kinase panel; assay type: cell-based; settings: 1 μM; MCF-7 Cells; Lys1; LVAIKSIR
T4 construct: purchased ActivX Biosciences (KiNativ)

MET = molecular target: T5, MET (Homo sapiens, UniProt P08581); assay: KiNativ kinase panel; assay type: cell-based; settings: 1 μM; MCF-7 Cells; Activation Loop; TGAKLPVK
T5 construct: purchased ActivX Biosciences (KiNativ)

KSR1, KSR2 = assay: KiNativ kinase panel; assay type: cell-based, human; settings: 1 μM, MCF-7 Cells, Activation Loop
[2] = test system: CaMK2a, CaMK2b, CaMK2d, CaMK2g; assay: KiNativ kinase panel; assay type: cell-based; settings: 1 μM, MCF-7 Cells, Lys2
[3] = Mouse pharmacokinetics, IP administration; assay type: in vivo; settings: male Balb/c mice, 1 mg/kg IP, mean ± SD, n = 3
Experimental: Mouse Pharmacokinetic Studies. Male Balb/C mice were non-fasted on the day of dosing. PK […]
plasma were conducted using an AB Sciex Triple Quad 6500+ mass spectrometer coupled with a Waters UPLC system. Supernatants were collected by centrifugation after protein precipitation using MeCN containing internal standard (IS, D4-AEA). Supernatant was injected for LC- […]
μm) column. The LC mobile phase (A: 5 mM NH 4OAc in H 2O; B: MeCN/MeOH 50/50)

PIP5K3 = molecular target: T6, PIP5K3 (Homo sapiens, UniProt Q9Y2I7); assay: KiNativ kinase panel; assay type: cell-based; settings: 1 μM; MCF-7 Cells; ATP; GGKSGAAFYATEDDRFILK
T6 construct: purchased ActivX Biosciences (KiNativ)

TYK2_Domain2 domain2 = molecular target: T7, TYK2_Domain2 domain2 (Homo sapiens, UniProt P29597); assay: KiNativ kinase panel; assay type: cell-based; settings: 1 μM; MCF-7 Cells; Activation Loop; IGDFGLAKAVPEGHEYYR
T7 construct: Briefly, MCF7 cells were exposed to; endogenous in cells; host or cells: MCF7

ABL, ARG = assay: KiNativ kinase panel; assay type: cell-based, human; settings: 1 μM, MCF-7 Cells
ITPK1 = molecular target: T8, ITPK1 (Homo sapiens, UniProt Q13572); assay: KiNativ kinase panel; assay type: cell-based; settings: 1 μM, MCF-7 Cells, ATP
T8 construct: endogenous in cells; host or cells: MCF7
T8 sequence (Q13572 1-414): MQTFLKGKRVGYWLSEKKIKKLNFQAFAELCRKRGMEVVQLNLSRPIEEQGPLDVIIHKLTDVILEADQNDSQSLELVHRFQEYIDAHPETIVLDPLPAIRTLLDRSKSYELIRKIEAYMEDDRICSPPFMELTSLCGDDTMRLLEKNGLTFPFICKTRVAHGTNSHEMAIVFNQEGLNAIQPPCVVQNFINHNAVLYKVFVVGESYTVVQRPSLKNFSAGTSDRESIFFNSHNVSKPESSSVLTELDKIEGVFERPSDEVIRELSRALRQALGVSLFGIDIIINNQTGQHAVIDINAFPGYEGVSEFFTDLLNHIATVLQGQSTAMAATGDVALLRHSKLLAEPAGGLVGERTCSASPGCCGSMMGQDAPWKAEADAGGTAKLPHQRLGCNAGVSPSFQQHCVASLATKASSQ

CHK1 = molecular target: T9, CHK1 (Homo sapiens, UniProt O14757); assay: KiNativ kinase panel; assay type: cell-based; settings: 1 μM, MCF-7 Cells
T9 construct: host or cells: MCF7
T9 sequence (O14757 1-476): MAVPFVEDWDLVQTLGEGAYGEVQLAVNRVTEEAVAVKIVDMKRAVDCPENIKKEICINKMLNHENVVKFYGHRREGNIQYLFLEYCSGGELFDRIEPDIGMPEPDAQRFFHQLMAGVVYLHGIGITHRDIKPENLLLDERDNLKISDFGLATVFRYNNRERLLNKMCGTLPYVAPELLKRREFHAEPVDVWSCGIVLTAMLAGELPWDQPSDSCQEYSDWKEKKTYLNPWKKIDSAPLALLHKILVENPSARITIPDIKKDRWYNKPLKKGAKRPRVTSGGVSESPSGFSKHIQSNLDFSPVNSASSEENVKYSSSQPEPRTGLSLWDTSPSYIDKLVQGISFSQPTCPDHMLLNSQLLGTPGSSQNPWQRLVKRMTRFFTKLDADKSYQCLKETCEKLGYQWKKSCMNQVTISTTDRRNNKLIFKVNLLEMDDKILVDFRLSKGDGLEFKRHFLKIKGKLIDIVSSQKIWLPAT

p38d, p38g = assay: KiNativ kinase panel; assay type: cell-based, human; settings: 1 μM, MCF-7 Cells, Lys2
[4] = ESIFFNSHNVSKPESSSVLTELDKIEGVFERPSDEVIR

## CO[C@H]1C[C@@H]2CC[C@@H](C)[C@@](O)(O2)C(=O)C(=O)N2CCCC[C@H]2C(=O)O[C@H]([C@H](C)C[C@@H]2CC[C@@H](OC(=O)NCCOCCOCCOCCOCCOCCOCCOCCOCCC(=O)N3CCc4cc(Cn5nc(-c6ccc7oc(N)nc7c6)c6c(N)ncnc65)ccc4C3)[C@H](OC)C2)C[C@@H](O)[C@H](C)/C=C(\C)[C@@H](O)[C@@H](OC)C(=O)[C@H](C)C[C@H](C)/C=C/C=C/C=C/1C [compound 38]
MAP3K2, MAP3K3
  KiNativ Kinase Panel Data: -12.6
MER, TYRO3
  KiNativ Kinase Panel Data: -0.7
EphB2
  KiNativ Kinase Panel Data: 26.5
[1]; […]
  KiNativ Kinase Panel Data: 33.6
SMG1; DTVTIHSVGGTITILPTKTKPK
  KiNativ Kinase Panel Data: 0.8
SMG1; SYPYLFKGLEDLHLDER
  KiNativ Kinase Panel Data: 21.6
NEK6, NEK7; […]
  KiNativ Kinase Panel Data: 11.1
MAST1, MAST2; […]
  KiNativ Kinase Panel Data: 19.6
AKT2, AKT3; […]
  KiNativ Kinase Panel Data: -13.5
AMPKa1, AMPKa2; Lys1, VAVKILNR
  KiNativ Kinase Panel Data: 6.8
AMPKa1, AMPKa2; Lys2, […]
  KiNativ Kinase Panel Data: -6.5
LOK
  KiNativ Kinase Panel Data: -65.4
NuaK2
  KiNativ Kinase Panel Data: 18.8
MET
  KiNativ Kinase Panel Data: 3.9
KSR1, KSR2; […]
  KiNativ Kinase Panel Data: -19.2
[2]; […]
  KiNativ Kinase Panel Data: 26.2
[3]; mouse, in vivo
  AUC(0-t): 25.9 ± 3 µM·h
  Cmax: 5670 ng/mL and 3.19 µM
  half-life: 4.8 ± 0.4 h
[3]; mouse, in vivo, read-out: Tmax
  Tmax: 2 h
PIP5K3
  KiNativ Kinase Panel Data: 0.8
TYK2_Domain2 domain2
  KiNativ Kinase Panel Data: 15.6
ABL, ARG; Activation Loop, […]
  KiNativ Kinase Panel Data: -3.4
ABL, ARG; Lys1, […]
  KiNativ Kinase Panel Data: -1.3
ITPK1; [4]
  KiNativ Kinase Panel Data: 6.5
ITPK1; […]
  KiNativ Kinase Panel Data: 22.4
CHK1; Lys2, […]
  KiNativ Kinase Panel Data: -13.6
CHK1; Other, […]
  KiNativ Kinase Panel Data: 25.4
p38d, p38g; […]
  KiNativ Kinase Panel Data: -3.7

## CO[C@H]1C[C@@H]2CC[C@@H](C)[C@@](O)(O2)C(=O)C(=O)N2CCCC[C@H]2C(=O)O[C@H]([C@H](C)C[C@@H]2CC[C@@H](OC(=O)NCCOCCOCCOCCOCCOCCOCCOCCOCCC(=O)NCCS(=O)(=O)c3ccc(C(=O)N4CCOc5ccc(-c6ccc(N)nc6)cc5C4)c(C)c3F)[C@H](OC)C2)C[C@@H](O)[C@H](C)/C=C(\C)[C@@H](O)[C@@H](OC)C(=O)[C@H](C)C[C@H](C)/C=C/C=C/C=C/1C [compound 40]
MAP3K2, MAP3K3
  KiNativ Kinase Panel Data: -18.2
MER, TYRO3
  KiNativ Kinase Panel Data: 7.1
EphB2
  KiNativ Kinase Panel Data: 1.3
[1]; VLGTGAYGKVFLVR
  KiNativ Kinase Panel Data: 16.0
SMG1; DTVTIHSVGGTITILPTKTKPK
  KiNativ Kinase Panel Data: -11.1
SMG1; SYPYLFKGLEDLHLDER
  KiNativ Kinase Panel Data: 11.7
NEK6, NEK7; DIKPANVFITATGVVK
  KiNativ Kinase Panel Data: -12.6
MAST1, MAST2; DLKPDNLLITSMGHIK
  KiNativ Kinase Panel Data: 22.5
AKT2, AKT3; GTFGKVILVR
  KiNativ Kinase Panel Data: -101.1
AMPKa1, AMPKa2; Lys1, VAVKILNR
  KiNativ Kinase Panel Data: 2.1
AMPKa1, AMPKa2; Lys2, DLKPENVLLDAHMNAK
  KiNativ Kinase Panel Data: -1.3
LOK
  KiNativ Kinase Panel Data: -19.4
NuaK2
  KiNativ Kinase Panel Data: 16.0
MET
  KiNativ Kinase Panel Data: 6.3
KSR1, KSR2; SKNVFYDNGK
  KiNativ Kinase Panel Data: -20.7
[2]; DLKPENLLLASK
  KiNativ Kinase Panel Data: -30.6
[3]
  Tmax: 2.3 ± 1.5 h
  t1/2: 3.8 ± 0.6 h
[3]; 1 mg/kg
  AUClast: 8.7 ± 1.2 µM·h
PIP5K3
  KiNativ Kinase Panel Data: 19.9
TYK2_Domain2 domain2
  KiNativ Kinase Panel Data: 1.9
ABL, ARG; Activation Loop, LMTGDTYTAHAGAKFPIK
  KiNativ Kinase Panel Data: 16.3
ABL, ARG; Lys1, YSLTVAVKTLKEDTMEVEEFLK
  KiNativ Kinase Panel Data: -25.3
ITPK1; [4]
  KiNativ Kinase Panel Data: -9.6
ITPK1; NFSAGTSDRESIFFNSHNVSKPESSSVLTELDKIEGVFERPSDEVIR
  KiNativ Kinase Panel Data: -12.4
CHK1; Lys2, DIKPENLLLDER
  KiNativ Kinase Panel Data: -10.9
CHK1; Other, LSKGDGLEFK
  KiNativ Kinase Panel Data: 19.6
p38d, p38g; DLKPGNLAVNEDCELK
  KiNativ Kinase Panel Data: -28.8
